Measurements reported in publication PMC11740726 (PNAS Nexus, 2025).
“And” between values parts separate entries of the source, which are not always exact repeats. Equal values may be shown once. Read-outs that look alike come from different tables or passages of the source.

What was measured:
SARS-CoV-2 Omicron BA.5 = experiment: microbe, parasite or virus in culture; assay type: cell-based; conditions: Severe acute respiratory syndrome coronavirus 2, read-out: Against SARS-CoV-2 variants EC50, Omicron BA.5
SARS-CoV-2^E166V-P14 [1] = assay type: cell-based; conditions: read-out: EC50, SARS-CoV-2^E166V-P14, VeroE6 +2μM CP-100356
[2] = system: SARS-CoV-2 Omicron BA.2.75; experiment: microbe, parasite or virus in culture; assay type: cell-based; conditions: Severe acute respiratory syndrome coronavirus 2, read-out: Against SARS-CoV-2 variants EC50, Omicron BA.2.75
SARS-CoV-2 Omicron XBB = experiment: microbe, parasite or virus in culture; assay type: cell-based; conditions: Severe acute respiratory syndrome coronavirus 2, read-out: Against SARS-CoV-2 variants EC50, Omicron XBB
[3] = system: SARS-CoV-2 Omicron EG.5.1; experiment: microbe, parasite or virus in culture; assay type: cell-based; conditions: Severe acute respiratory syndrome coronavirus 2, read-out: Against SARS-CoV-2 variants EC50, Omicron EG.5.1
[4] = system: SARS-CoV-2 Omicron XBB.1.5; experiment: microbe, parasite or virus in culture; assay type: cell-based; conditions: Severe acute respiratory syndrome coronavirus 2, read-out: Against SARS-CoV-2 variants EC50, Omicron XBB.1.5
SARS-CoV-2^BQ.1.1 = experiment: microbe, parasite or virus in culture; assay type: cell-based; conditions: Severe acute respiratory syndrome coronavirus 2, read-out: Against SARS-CoV-2 variants EC50, Omicron BQ.1.1
[5] = system: six various Omicron variants (BA.5, BA.2.75, BQ.1.1, XBB, XBB.1.5, and EG.5.1); experiment: microbe, parasite or virus in culture; assay type: cell-based, SARS-CoV-2; conditions: Severe acute respiratory syndrome coronavirus 2, read-out: EC50 values ranging over all six Omicron variants
rgSARS-CoV-2^E166V = assay type: cell-based, SARS-CoV-2; conditions: read-out: EC50, rgSARS-CoV-2^E166V, VeroE6 +2μM CP-100356
SARS-CoV-2^E166V-P14 [6] = assay type: cell-based; conditions: read-out: EC50, SARS-CoV-2^E166V-P14, HeLa^hACE2-TMPRSS2
rgSARS-CoV-2^WT = experiment: microbe, parasite or virus in culture; assay type: cell-based; conditions: Severe acute respiratory syndrome coronavirus 2, Vero C1008, read-out: EC50, rgSARS-CoV-2^WT, VeroE6 +2μM CP-100356

| SMILES | EC50 (SARS-CoV-2 Omicron BA.5) [nM] | EC50 (SARS-CoV-2^E166V-P14 [1]) [nM] | EC50 [2] [nM] | EC50 (SARS-CoV-2 Omicron XBB) [nM] | EC50 [3] [nM] | EC50 [4] [nM] | EC50 (SARS-CoV-2^BQ.1.1) [nM] | EC50 [5] [nM] | EC50 (rgSARS-CoV-2^E166V) [nM] | EC50 (SARS-CoV-2^E166V-P14 [6]) | EC50 (rgSARS-CoV-2^WT) [nM] |
| --- | --- | --- | --- | --- | --- | --- | --- | --- | --- | --- | --- |
| Cn1cnc(Cn2c(=O)[nH]/c(=N\c3cc4cn(C)nc4cc3Cl)n(Cc3cc(F)c(F)cc3F)c2=O)n1 [Ensitrelvir, reference compound] | 200 ± 40 | 540 | 140 ± 60 | 60 ± 20 | 210 ± 90 | 220 ± 90 | 70 ± 20 | 60 to 220 | – | – | – |
| CC(C)(C)[C@H](NC(=O)C(F)(F)F)C(=O)N1C[C@H]2[C@@H]([C@H]1C(=O)N[C@H](C#N)C[C@@H]1CCNC1=O)C2(C)C [Nirmatrelvir, reference compound] | 750 ± 220 | – | 300 ± 220 | – | 130 ± 20 | 210 ± 280 | 50 ± 20 | 20 to 750 | 1300 | 1420 nM | 26 ± 5 |
| CC(C)(C)[C@H](NC(=O)C(F)(F)F)C(=O)N1C[C@H]2[C@@H]([C@H]1C(=O)N[C@@H](C[C@@H]1CCNC1=O)C(=O)c1nc3c(F)cccc3s1)C2(C)C [TKB245] | 23 ± 9 | – | 27 ± 3 | 6 ± 3 | 9 ± 1 | 35 ± 18 | – | 6 to 38 | – | – | – |
| CC(C)(C)[C@H](NC(=O)C(F)(F)F)C(=O)N1C[C@H]2[C@@H]([C@H]1C(=O)N[C@@H](C[C@@H]1CCNC1=O)C(=O)c1nc3cc(F)ccc3s1)C2(C)C [TKB272] | 8 ± 1 | – | 6 ± 3 | 3 ± 1 | 7 ± 1 | 5 ± 2 | 3 ± 1 | 3 to 8 | 22 | 51.3 nM and 51 nM | 3 |
| CC(C)C(=O)OC[C@H]1O[C@@H](n2ccc(NO)nc2=O)[C@H](O)[C@@H]1O [molnupiravir, reference compound] | – | 750 | – | – | – | – | – | – | – | – | – |
